Measured values from US10294202B2, “Pyrrolidinones as herbicides” (FMC Corporation, priority 2013, dated 2019).

Key:
giant foxtail = assay: Test A pre-/postemergence herbicide test; assay type: in vivo, Setaria faberii
How it was run: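 Visual 0–100 ratings (100 = complete control) made about 10 days after treatment, greenhouse-held plants compared with untreated controls. Treatments: postemergence sprays on one- to two-leaf plants (2–10 cm tall) and preemergence directed soil sprays after planting in loam–sand, chemicals formulated in non-phytotoxic solvent containing surfactant.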

sedge, umbrella = assay: Test B flooded paddy test; assay type: in vivo, Cyperus difformis; details: 250 g ai/ha, Flood; scale of 0 to 100 where 0 is no effect and 100 is complete control
How it was run: (§1)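 Paddy-water application at a 3 cm flood, young plants having two leaves. Water level maintained; greenhouse, 13–15 days; visual 0–100 control rating.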

barnyardgrass = assay: Test B flooded paddy test; assay type: in vivo, Echinochloa crus-galli; details: 250 g ai/ha, Flood; scale of 0 to 100 where 0 is no effect and 100 is complete control
How it was run: as §1

ryegrass, Italian = assay: Test C pre-/postemergence herbicide test; assay type: in vivo, Lolium multiflorum; details: for Ryegrass, Italian plant response rating: scale 0 to 100, 0 is no effect and 100 is complete control
How it was run: (§2)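 Greenhouse plants scored visually against untreated controls 13–15 days after treatment, 0 = no effect, 100 = complete control. Test chemicals in a non-phytotoxic solvent with surfactant were applied either to soil (loam/sand) at planting or to foliage of 1- to 4-leaf plants, 2–18 cm tall.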

crabgrass, large = assay: Test C pre-/postemergence herbicide test; assay type: in vivo, Digitaria sanguinalis
How it was run: as §2

johnsongrass = assay: Test C pre-/postemergence herbicide test; assay type: in vivo, Sorghum halepense; details: for Johnsongrass plant response rating: scale 0 to 100, 0 is no effect and 100 is complete control
How it was run: as §2

ragweed = assay: Test C pre-/postemergence herbicide test; assay type: in vivo, Ambrosia elatior; details: for Ragweed plant response rating: scale 0 to 100, 0 is no effect and 100 is complete control
How it was run: as §2

oat, wild = assay: Test C pre-/postemergence herbicide test; assay type: in vivo, Avena fatua
How it was run: as §2

velvetleaf = assay: Test C pre-/postemergence herbicide test; assay type: in vivo, Abutilon theophrasti; details: for Velvetleaf plant response rating: scale 0 to 100, 0 is no effect and 100 is complete control
How it was run: as §2

[1] = Postemergence, 31 g ai/ha, scale 0 (no effect) to 100 (complete control)
[2] = Postemergence, 62 g ai/ha, scale 0 to 100 (0 no effect, 100 complete control)
[3] = Postemergence, 125 g ai/ha, scale 0 to 100 (0 no effect, 100 complete control)
[4] = Postemergence, 250 g ai/ha, scale 0 to 100 (0 no effect, 100 complete control)
[5] = Preemergence, 62 g ai/ha, scale 0 to 100
[6] = Preemergence, 125 g ai/ha, scale 0 to 100 (0 no effect, 100 complete control)
[7] = Preemergence, 31 g ai/ha, scale 0 to 100 (0 no effect, 100 complete control)
[8] = Preemergence, 250 g ai/ha, scale 0 to 100 (0 no effect, 100 complete control)
[9] = Postemergence, 125 g ai/ha, 0 to 100 scale, 0 no effect, 100 complete control
[10] = Postemergence, 500 g ai/ha, 0 to 100 scale (0 no effect, 100 complete control)
[11] = Preemergence, 125 g ai/ha, visual rating on 0 to 100 scale (0 no effect, 100 complete control)
[12] = preemergence, 500 g ai/ha, 0 to 100 scale
[13] = Preemergence, 31 g ai/ha, scale 0 to 100, 0 is no effect and 100 is complete control

O=C1NCC(c2cc(F)c(F)c(F)c2)C1C(=O)Nc1ccccc1F (racemic) [Compound 34]
Plant response rating, Foxtail, Giant (giant foxtail; Postemergence, 1000 g ai/ha, 0 to 100 scale (0 no effect, 100 complete control)): 90 | Plant response rating, Foxtail, Giant (giant foxtail; Preemergence, 1000 g ai/ha, visual rating on 0 to 100 scale (0 no effect, 100 complete control), approx. 10 days): 90 | Plant response rating, Sedge, Umbrella (sedge, umbrella): 0 | Plant response rating, Barnyardgrass (barnyardgrass): 0 | Plant response rating, Ryegrass, Italian (ryegrass, Italian; [1]): 0 | Plant response rating, Ryegrass, Italian (ryegrass, Italian; [2]): 0 | Plant response rating, Ryegrass, Italian (ryegrass, Italian; [3]): 0 | Plant response rating, Ryegrass, Italian (ryegrass, Italian; [4]): 0 | Plant response rating, Ryegrass, Italian (ryegrass, Italian; [5]): 0 | Plant response rating, Ryegrass, Italian (ryegrass, Italian; [6]): 20 | Plant response rating, Crabgrass, Large (crabgrass, large; [1]): 0 | Plant response rating, Crabgrass, Large (crabgrass, large; [2]): 30 | Plant response rating, Crabgrass, Large (crabgrass, large; [3]): 40 | Plant response rating, Crabgrass, Large (crabgrass, large; [4]): 60 | Crabgrass, Large plant response rating (crabgrass, large; [7]): 95 | Plant response rating, Crabgrass, Large (crabgrass, large; [5]): 98 | Plant response rating, Crabgrass, Large (crabgrass, large; [6]): 100 | Plant response rating, Crabgrass, Large (crabgrass, large; [8]): 100 | Plant response rating, Johnsongrass (johnsongrass; [1]): 0 | Plant response rating, Johnsongrass (johnsongrass; [2]): 0 | Plant response rating, Johnsongrass (johnsongrass; [3]): 0 | Plant response rating, Johnsongrass (johnsongrass; [4]): 0 | Plant response rating, Johnsongrass (johnsongrass; [5]): 10 | Plant response rating, Johnsongrass (johnsongrass; [6]): 10 | Plant response rating, Ragweed (ragweed; [1]): 5 | Plant response rating, Ragweed (ragweed; [2]): 5 | Plant response rating, Ragweed (ragweed; [3]): 5 | Plant response rating, Ragweed (ragweed; [4]): 5 | Plant response rating, Ragweed (ragweed; [5]): 0 | Plant response rating, Ragweed (ragweed; [6]): 0 | Plant response rating, Oat, Wild (oat, wild; [1]): 0 | Plant response rating, Oat, Wild (oat, wild; [2]): 0 | Plant response rating, Oat, Wild (oat, wild; [3]): 0 | Plant response rating, Oat, Wild (oat, wild; [4]): 0 | Plant response rating, Oat, Wild (oat, wild; [5]): 0 | Plant response rating, Oat, Wild (oat, wild; [6]): 60 | Plant response rating, Velvetleaf (velvetleaf; [1]): 5 | Plant response rating, Velvetleaf (velvetleaf; [2]): 5 | Plant response rating, Velvetleaf (velvetleaf; [3]): 5 | Plant response rating, Velvetleaf (velvetleaf; [4]): 5 | Plant response rating, Velvetleaf (velvetleaf; [5]): 0 | Plant response rating, Velvetleaf (velvetleaf; [6]): 0

O=C1NCC(c2cccc(Br)c2)C1C(=O)Nc1ccccc1F (stereo not drawn) [Compound 66]
Plant response rating, Foxtail, Giant (giant foxtail; [9]): 70 | Plant response rating, Foxtail, Giant (giant foxtail; [10]): 80 | Foxtail, Giant plant response rating (giant foxtail; [11]): 80 | Plant response rating, Foxtail, Giant (giant foxtail; [12]): 90 | Plant response rating, Sedge, Umbrella (sedge, umbrella): 50 | Plant response rating, Barnyardgrass (barnyardgrass): 0 | Ryegrass, Italian plant response rating (ryegrass, Italian; Preemergence, 31 g ai/ha): 0 | Plant response rating, Ryegrass, Italian (ryegrass, Italian; [5]): 0 | Plant response rating, Ryegrass, Italian (ryegrass, Italian; [6]): 0 | Crabgrass, Large plant response rating (crabgrass, large; [13]): 90 | Plant response rating, Crabgrass, Large (crabgrass, large; [5]): 95 | Plant response rating, Crabgrass, Large (crabgrass, large; [6]): 98 | Plant response rating, Crabgrass, Large (crabgrass, large; [8]): 98 | Johnsongrass plant response rating (johnsongrass; Preemergence, 31 g ai/ha): 30 | Ragweed plant response rating (ragweed; Preemergence, 31 g ai/ha): 10 | Plant response rating, Ragweed (ragweed; [5]): 20 | Plant response rating, Ragweed (ragweed; [6]): 25 | Oat, Wild plant response rating (oat, wild; [13]): 0 | Plant response rating, Oat, Wild (oat, wild; [5]): 0 | Plant response rating, Oat, Wild (oat, wild; [6]): 0 | Velvetleaf plant response rating (velvetleaf; Preemergence, 31 g ai/ha): 10 | Plant response rating, Velvetleaf (velvetleaf; [5]): 20 | Plant response rating, Velvetleaf (velvetleaf; [6]): 25

O=C1NCC(c2ccc3c(c2)OC(F)(F)O3)C1C(=O)Nc1cccc(F)c1F (stereo not drawn) [Compound 62]
Plant response rating, Foxtail, Giant (giant foxtail; [9]): 80 | Plant response rating, Foxtail, Giant (giant foxtail; [10]): 80 | Foxtail, Giant plant response rating (giant foxtail; [11]): 80 | Plant response rating, Foxtail, Giant (giant foxtail; [12]): 90 | Plant response rating, Sedge, Umbrella (sedge, umbrella): 80 | Plant response rating, Barnyardgrass (barnyardgrass): 20 | Plant response rating, Ryegrass, Italian (ryegrass, Italian; [5]): 0 | Plant response rating, Ryegrass, Italian (ryegrass, Italian; [6]): 30 | Crabgrass, Large plant response rating (crabgrass, large; [7]): 85 | Plant response rating, Crabgrass, Large (crabgrass, large; [5]): 90 | Plant response rating, Crabgrass, Large (crabgrass, large; [6]): 95 | Plant response rating, Crabgrass, Large (crabgrass, large; [8]): 98 | Plant response rating, Johnsongrass (johnsongrass; [5]): 10 | Plant response rating, Johnsongrass (johnsongrass; [6]): 30 | Plant response rating, Ragweed (ragweed; [5]): 15 | Plant response rating, Ragweed (ragweed; [6]): 45 | Plant response rating, Oat, Wild (oat, wild; [5]): 40 | Plant response rating, Oat, Wild (oat, wild; [6]): 50 | Plant response rating, Velvetleaf (velvetleaf; [5]): 20 | Plant response rating, Velvetleaf (velvetleaf; [6]): 25

O=C1NCC(c2cccc(OC(F)(F)F)c2)C1C(=O)Nc1cccc(F)c1F (stereo not drawn) [Compound 68]
Plant response rating, Foxtail, Giant (giant foxtail; [9]): 80 | Plant response rating, Foxtail, Giant (giant foxtail; [10]): 80 | Foxtail, Giant plant response rating (giant foxtail; [11]): 90 | Plant response rating, Foxtail, Giant (giant foxtail; [12]): 90 | Plant response rating, Sedge, Umbrella (sedge, umbrella): 70 | Plant response rating, Barnyardgrass (barnyardgrass): 40 | Ryegrass, Italian plant response rating (ryegrass, Italian; Preemergence, 31 g ai/ha): 0 | Plant response rating, Ryegrass, Italian (ryegrass, Italian; [5]): 0 | Plant response rating, Ryegrass, Italian (ryegrass, Italian; [6]): 0 | Crabgrass, Large plant response rating (crabgrass, large; [13]): 90 | Plant response rating, Crabgrass, Large (crabgrass, large; [5]): 90 | Plant response rating, Crabgrass, Large (crabgrass, large; [6]): 95 | Plant response rating, Crabgrass, Large (crabgrass, large; [8]): 95 | Johnsongrass plant response rating (johnsongrass; Preemergence, 31 g ai/ha): 0 | Plant response rating, Johnsongrass (johnsongrass; [5]): 35 | Plant response rating, Johnsongrass (johnsongrass; [6]): 40 | Ragweed plant response rating (ragweed; Preemergence, 31 g ai/ha): 0 | Plant response rating, Ragweed (ragweed; [5]): 0 | Plant response rating, Ragweed (ragweed; [6]): 0 | Plant response rating, Oat, Wild (oat, wild; [6]): 0 | Velvetleaf plant response rating (velvetleaf; Preemergence, 31 g ai/ha): 10 | Plant response rating, Velvetleaf (velvetleaf; [5]): 10 | Plant response rating, Velvetleaf (velvetleaf; [6]): 10
